Measurements published in patent US9370515B2, “Mixed lineage kinase inhibitors and method of treatments” (CALIFIA BIO, INC., priority 2013, dated 2016).
Entries after “also recorded” stand apart in the source; their conditions may differ. Read-outs that look alike come from different tables or passages of the source.

Tests used:
[1] = molecular target: MLK-3 (Homo sapiens, UniProt Q16584); test: Biochemical assay for the inhibition of kinase activity for MLK-3 (33P-ATP, HOTSPOT filter binding); conditions: activated MLK-3 20 nM, ATP 50 μM, myelin basic protein 20 μM, 20 minutes room temperature
How it was run: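 Activated MLK-3 (20 nM) with myelin basic protein (20 μM) in 20 mM Hepes pH 7.5, MgCl2, EGTA, Brij35, BSA, Na3VO4, DTT, 1% DMSO. Started with 33P-ATP at 50 μM ATP, 20 min at room temperature; % activity by HOTSPOT filter binding.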

[2] = molecular target: T1, diverse set of kinases (Homo sapiens, UniProt O15111); test: Protein kinase selectivity: IC50 against a diverse set of kinases, compared with URMC-099; format: biochemical; conditions: kinase IKKa
T1 construct: IC50 IKKa; other: kinase IKKa
T1 sequence (O15111 1-745): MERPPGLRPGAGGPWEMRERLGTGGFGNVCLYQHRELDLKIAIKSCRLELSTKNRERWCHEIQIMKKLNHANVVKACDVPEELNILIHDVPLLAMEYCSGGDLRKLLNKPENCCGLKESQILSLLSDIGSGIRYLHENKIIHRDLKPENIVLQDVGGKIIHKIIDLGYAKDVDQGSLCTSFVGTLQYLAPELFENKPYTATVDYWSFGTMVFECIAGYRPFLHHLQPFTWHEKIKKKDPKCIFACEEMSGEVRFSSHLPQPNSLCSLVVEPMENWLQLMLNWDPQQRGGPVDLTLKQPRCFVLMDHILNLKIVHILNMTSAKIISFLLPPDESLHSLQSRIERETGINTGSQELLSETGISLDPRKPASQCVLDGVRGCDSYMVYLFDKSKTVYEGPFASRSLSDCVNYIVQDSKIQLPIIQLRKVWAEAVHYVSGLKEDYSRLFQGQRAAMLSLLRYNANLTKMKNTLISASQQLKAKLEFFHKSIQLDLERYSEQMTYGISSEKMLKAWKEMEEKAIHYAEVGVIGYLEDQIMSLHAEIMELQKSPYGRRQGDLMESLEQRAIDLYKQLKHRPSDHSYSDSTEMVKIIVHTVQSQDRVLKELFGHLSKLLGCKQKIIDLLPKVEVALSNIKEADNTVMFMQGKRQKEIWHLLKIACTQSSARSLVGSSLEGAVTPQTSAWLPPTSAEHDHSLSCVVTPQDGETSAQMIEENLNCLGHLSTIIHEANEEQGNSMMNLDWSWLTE
Source text: (§1) Protein Kinase Selectivity: MLK-3 inhibitors previously reported in the literature are somewhat promiscuous and inhibit a large number of serine and threonine protein kinases. Compounds of the present invention that show potent inhibition on MLK-3 are very specific for MLK family kinases. […] Journal of Medicinal Chemistry, 2013.

[3] = molecular target: T2, diverse set of kinases (Homo sapiens, UniProt P06213); test: as above; format: biochemical; conditions: kinase IR
T2 construct: IC50 IR; other: kinase IR
Source text: as §1

[4] = molecular target: T3, diverse set of kinases (Homo sapiens, UniProt O14920); test: as above; format: biochemical; conditions: kinase IKKb
T3 construct: IC50 IKKb; other: kinase IKKb
T3 sequence (O14920 1-756): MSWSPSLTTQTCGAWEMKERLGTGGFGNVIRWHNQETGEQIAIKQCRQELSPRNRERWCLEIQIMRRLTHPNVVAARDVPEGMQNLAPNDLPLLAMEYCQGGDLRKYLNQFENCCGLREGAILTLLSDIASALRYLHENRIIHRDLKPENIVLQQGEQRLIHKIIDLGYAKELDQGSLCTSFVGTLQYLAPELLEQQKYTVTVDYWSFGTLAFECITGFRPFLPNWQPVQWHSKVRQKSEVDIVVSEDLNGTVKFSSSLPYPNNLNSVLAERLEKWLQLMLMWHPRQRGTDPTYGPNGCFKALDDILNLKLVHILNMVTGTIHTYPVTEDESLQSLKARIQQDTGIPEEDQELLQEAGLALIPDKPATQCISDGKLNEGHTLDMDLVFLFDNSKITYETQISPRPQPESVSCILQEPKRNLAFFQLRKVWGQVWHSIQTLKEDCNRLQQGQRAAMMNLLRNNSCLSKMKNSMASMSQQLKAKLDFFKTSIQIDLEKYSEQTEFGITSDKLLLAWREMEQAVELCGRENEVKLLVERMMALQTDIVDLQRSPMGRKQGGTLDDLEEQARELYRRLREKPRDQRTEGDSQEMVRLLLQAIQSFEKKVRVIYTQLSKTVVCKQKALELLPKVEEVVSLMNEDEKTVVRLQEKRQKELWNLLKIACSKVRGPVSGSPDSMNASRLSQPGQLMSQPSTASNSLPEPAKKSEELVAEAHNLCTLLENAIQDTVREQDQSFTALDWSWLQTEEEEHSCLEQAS
Source text: as §1

[5] = molecular target: T4, diverse set of kinases (Homo sapiens, UniProt P24941); test: as above; format: biochemical; conditions: kinase CDK2
T4 construct: IC50 CDK2; other: kinase CDK2
Source text: as §1

[6] = molecular target: diverse set of kinases (Homo sapiens, UniProt P00519, T315I); test: as above; format: biochemical; conditions: kinase ABL1, read-out: IC50 ABL1(T31SI)
Source text: as §1

[7] = Blood brain barrier penetration: standard murine pharmacokinetic model, plasma and brain concentrations; format: in vivo; conditions: mouse; brain concentration 3 hrs after single IV injection 10 mg/kg, CL57 BL/6 mice; read-out: Cbrain 3 hrs
Source text: Compounds disclosed herein may be evaluated in pharmacokinetic assays and models to determine absorption, distribution, metabolism, and excretion parameters. The choice and tailoring of in vitro and ex vivo assays and in vivo models will vary according to the route of administration/formulation, indication under study, properties of test compounds, etc., as well as according to such factors as costs, availability of technology and resources, etc. Such parameters are well known in the fields of pharmacology and drug development. It is within the capacity of one skilled in the art to design and carry out, such work, or to outsource it to a capable third party.
Several compounds disclosed herein were evaluated in a standard murine pharmacokinetic model. […] For ease of analysis compounds were dissolved in 5% DMSO, 40% PEG400, and […] to yield a nominal concentration of 2 mg/mL for intravenous administration. Compounds were administered via a single intravenous (IV) injection in CL57 BL/6 mice at 10 mg/kg in DMSO/PEG400/Saline solution. Three mice in each group were used for blood and brain collection at each time point. Blood samples (300 μL) were collected via the retro-orbital vein predose and at 30, 60 and 180 minutes postdose. Blood samples were placed into tubes containing sodium heparin and centrifuged under refrigerated conditions at 8000 rpm for 6 minutes to separate plasma from the samples. The brain of each animal was collected after the final blood collection. The whole tissue was harvested, excised and rinsed by saline, dried by filter paper, and then placed into one tube per tissue per animal. All samples were stored at −20° C. until bioanalysis. Compound concentrations in plasma and brain homogenate were determined using a high performance liquid chromatography/mass spectrometry (HPLC/MS/MS) methods.

[8] = system: E18 primary hippocampal neurons; test: Neuroprotection from HIV-1 Tat: hippocampal neurons in microfluidic chambers exposed to Tat-treated BV-2 microglia; format: cell-based; conditions: BV-2 microglia treated with 1 μg/ml HIV-1 Tat; for Axonogenesis in the presence of Tat-activated microglia: compound 100 nM, FIG. 1 arrows
Experimental: FIG. 2 is a graph illustrating the quantification of axon elimination in the presence of HIV tat and certain inhibitors including compounds of the present disclosure. FIG. 3 is a graph illustrating the quantification of axon length in the presence of HIV tat and certain inhibitors including compounds of the present disclosure. Neuroprotection from HIV-1 Tat: E18 primary hippocampal neurons were plated in microfluidic chambers for 7 days in vitro (DIV). These chambers contain a cell body compartment contiguous with a series of 10 um wide, 3 um high, 400 um long microgrooves through which axons grow into a second compartment, fluidically isolated by a hydrostatic pressure gradient. […] Chambers that were exposed to BV-2 microglia treated with Tat alone had almost their entire axonal field destroyed (FIG. 1, brightfield image). […] FIGS. 2 and 3 show quantifications of axon elimination in the presence of HIV tat and Compounds 169, 67, 68 and 175.

[9] = mice, Goodfellow et al 2013; cited from earlier work

T2 sequence (P06213 whole entry): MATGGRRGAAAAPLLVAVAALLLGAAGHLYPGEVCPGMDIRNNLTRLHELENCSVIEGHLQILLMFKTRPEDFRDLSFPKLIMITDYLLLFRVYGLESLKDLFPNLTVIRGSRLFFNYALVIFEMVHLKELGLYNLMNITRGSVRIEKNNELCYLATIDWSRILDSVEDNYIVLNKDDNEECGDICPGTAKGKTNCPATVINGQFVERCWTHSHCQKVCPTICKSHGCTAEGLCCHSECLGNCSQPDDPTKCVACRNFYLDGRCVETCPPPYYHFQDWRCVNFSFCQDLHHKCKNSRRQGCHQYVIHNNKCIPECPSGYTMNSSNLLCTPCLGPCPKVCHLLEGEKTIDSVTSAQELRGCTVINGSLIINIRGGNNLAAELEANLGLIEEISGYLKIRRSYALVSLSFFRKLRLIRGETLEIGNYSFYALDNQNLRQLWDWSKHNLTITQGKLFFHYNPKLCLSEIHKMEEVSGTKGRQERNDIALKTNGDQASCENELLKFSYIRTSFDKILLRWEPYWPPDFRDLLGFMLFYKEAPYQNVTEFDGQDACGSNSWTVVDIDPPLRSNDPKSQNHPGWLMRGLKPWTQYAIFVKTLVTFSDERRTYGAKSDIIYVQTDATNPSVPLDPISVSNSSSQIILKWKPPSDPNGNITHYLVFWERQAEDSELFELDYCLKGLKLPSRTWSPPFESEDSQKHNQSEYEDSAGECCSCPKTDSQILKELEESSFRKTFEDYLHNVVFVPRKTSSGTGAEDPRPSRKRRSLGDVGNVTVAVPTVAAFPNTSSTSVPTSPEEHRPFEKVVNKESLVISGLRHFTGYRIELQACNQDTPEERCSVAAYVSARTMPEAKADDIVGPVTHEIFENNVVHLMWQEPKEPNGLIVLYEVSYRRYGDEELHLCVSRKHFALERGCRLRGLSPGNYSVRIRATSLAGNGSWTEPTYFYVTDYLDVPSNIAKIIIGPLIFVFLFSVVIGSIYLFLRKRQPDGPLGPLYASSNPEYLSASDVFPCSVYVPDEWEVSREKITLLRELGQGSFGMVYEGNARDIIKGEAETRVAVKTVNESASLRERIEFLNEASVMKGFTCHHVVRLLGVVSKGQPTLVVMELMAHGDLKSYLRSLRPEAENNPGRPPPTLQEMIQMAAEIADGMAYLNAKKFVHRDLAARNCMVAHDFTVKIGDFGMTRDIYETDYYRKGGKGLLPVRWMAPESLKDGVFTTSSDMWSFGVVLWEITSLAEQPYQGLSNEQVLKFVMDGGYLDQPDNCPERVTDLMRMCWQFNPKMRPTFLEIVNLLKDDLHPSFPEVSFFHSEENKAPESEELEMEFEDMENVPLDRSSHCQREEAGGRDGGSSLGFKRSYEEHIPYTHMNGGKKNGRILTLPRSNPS
Sequence of MLK-3 (Q16584 whole entry): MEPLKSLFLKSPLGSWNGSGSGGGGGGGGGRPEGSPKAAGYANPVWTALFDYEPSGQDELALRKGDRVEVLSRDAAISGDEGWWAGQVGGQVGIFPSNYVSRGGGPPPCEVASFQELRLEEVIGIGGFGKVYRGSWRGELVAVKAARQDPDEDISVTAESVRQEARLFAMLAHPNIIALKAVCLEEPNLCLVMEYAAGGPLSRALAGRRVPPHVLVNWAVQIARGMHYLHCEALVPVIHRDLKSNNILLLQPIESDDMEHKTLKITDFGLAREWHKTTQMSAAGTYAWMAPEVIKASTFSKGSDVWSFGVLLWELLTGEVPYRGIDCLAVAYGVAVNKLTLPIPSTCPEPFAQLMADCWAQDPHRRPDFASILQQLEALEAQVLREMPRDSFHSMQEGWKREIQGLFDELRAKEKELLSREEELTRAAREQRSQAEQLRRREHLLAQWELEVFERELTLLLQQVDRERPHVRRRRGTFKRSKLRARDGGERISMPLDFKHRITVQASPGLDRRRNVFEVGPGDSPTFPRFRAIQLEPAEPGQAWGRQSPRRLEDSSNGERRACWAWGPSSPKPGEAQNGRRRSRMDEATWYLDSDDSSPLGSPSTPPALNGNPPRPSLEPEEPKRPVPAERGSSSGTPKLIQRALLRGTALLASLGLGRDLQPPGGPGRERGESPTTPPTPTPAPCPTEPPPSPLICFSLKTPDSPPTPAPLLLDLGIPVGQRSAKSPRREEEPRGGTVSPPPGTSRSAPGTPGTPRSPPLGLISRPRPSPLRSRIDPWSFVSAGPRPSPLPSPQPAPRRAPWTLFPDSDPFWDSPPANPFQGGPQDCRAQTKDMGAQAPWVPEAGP

SMILES | IC50 [1] [µM] | IC50 [2] [µM] | IC50 [3] [µM] | IC50 [4] [µM] | IC50 [5] [µM] | IC50 [6] [µM] | concentration at 3 h [7] [ng/g] | also measured
COc1ccc(Nc2ccc3ncc(-c4cc5cccc(OC)c5s4)n3n2)cc1OC [Compound 68, 3-(7-methoxybenzo[b]thiophen-2-yl)-N-(3,4-dimethoxyphenyl)imidazo[1,2-b]pyridazin-6-amine] | < 0.1 | > 10 | > 10 | > 10 | > 10 | > 10 | 1550 | Axonogenesis in the presence of Tat-activated microglia ([8]; listed as Compound 68): continued axonogenesis; Axonogenesis in the presence of Tat-activated microglia ([8]; listed as compound 68): promoted continued axonogenesis
CN1CCN(Cc2ccc(-c3cnc4[nH]cc(-c5ccc6[nH]ccc6c5)c4c3)cc2)CC1 [URMC-099, reference compound] |  | 0.591 | 0.2 | 0.257 | 1.18 |  |  | Protection of the axon field ([8]; test compounds 100 nM, 18 hours): protected the axon field; IC50 ([6]; read-out: IC50 ABL1): 0.003 µM
COc1cc2cc(-c3cnc4ccc(N(C)[C@H]5CC[C@H](OC)CC5)nn34)sc2cc1OC [Compound 175, 3-(5,6-dimethoxybenzo[b]thiophen-2-yl)-N-(trans-4-methoxycyclohexyl)-N-methylimidazo[1,2-b]pyridazin-6-amine] | < 0.1 |  |  |  |  |  | 1880 | 
COc1ccc(Nc2ccc3ncc(-c4cc5cc(OC)c(OC)cc5s4)n3n2)cc1OC [Compound 67, 3-(5,6-dimethoxybenzo[b]thiophen-2-yl)-N-(3,4-dimethoxyphenyl)imidazo[1,2-b]pyridazin-6-amine] | < 0.1 | > 10 | > 10 | > 10 | > 10 | > 10 | 566 | 
COc1cc2cc(-c3cnc4ccc(N[C@H]5CC[C@H](O)CC5)nn34)sc2cc1OC [Compound 169, trans-4-(3-(5,6-dimethoxybenzo[b]thiophen-2-yl)imidazo[1,2-b]pyridazin-6-ylamino)cyclohexanol] | < 0.1 | > 10 | > 10 | > 10 | 8.26 | > 10 |  | 
CCSCc1ccc2c(c1)c1c3c(c4c5cc(CSCC)ccc5n5c4c1n2[C@H]1C[C@](O)(C(=O)OC)[C@]5(C)O1)CNC3=O [CEP-1347] |  |  |  |  |  |  |  | CNS / blood brain barrier penetration [9]: very poor blood brain barrier penetration; also recorded: poor CNS penetration
COc1ccc(Nc2ccc3ncc(-c4cc5cncc(C)c5s4)n3n2)cc1OC [Compound 214, N-(3,4-dimethoxyphenyl)-3-(7-methylthieno[3,2-c]pyridin-2-yl)imidazo[1,2-b]pyridazin-6-amine] | 0.1 to 0.5 |  |  |  |  |  |  | 

Further lines, with some results ahead:

IC50 [1] [µM] | IC50 [2] [µM] | IC50 [3] [µM] | IC50 [4] [µM] | IC50 [5] [µM] | IC50 [6] [µM] | concentration at 3 h [7] [ng/g] | SMILES | also measured
0.1 to 0.5 | > 10 | > 10 | > 10 | 1.03 | > 10 |  | O[C@H]1CC[C@H](Nc2ccc3ncc(-c4cc5ccccc5s4)n3n2)CC1 [Compound 105, trans-4-(3-(benzo[b]thiophen-2-yl)imidazo[1,2-b]pyridazin-6-ylamino)cyclohexanol] | 
< 0.1 | > 10 | > 10 | > 10 | > 10 | > 10 |  | COc1cccc2cc(-c3cnc4ccc(N[C@H]5CC[C@H](O)CC5)nn34)sc12 [Compound 170, trans-4-(3-(7-methoxybenzo[b]thiophen-2-yl)imidazo[1,2-b]pyridazin-6-ylamino)cyclohexanol] | 
< 5 |  |  |  |  |  |  | COc1ccc(Nc2ccc3ncc(-c4cc5cc(OC)c(OC)c(OC)c5s4)n3n2)cc1OC [Compound 83, 3-(5,6,7-trimethoxybenzo[b]thiophen-2-yl)-N-(3,4-dimethoxyphenyl)imidazo[1,2-b]pyridazin-6-amine] | 
< 5 |  |  |  |  |  |  | CN1CCN(Cc2cccc(-c3ccc4ncc(-c5cc6ccccc6s5)n4n3)c2)CC1 [Compound 40, 3-(benzo[b]thiophen-2-yl)-6-(3-((4-methylpiperazin-1-yl)methyl)phenyl)imidazo[1,2-b]pyridazine] | 
< 5 |  |  |  |  |  |  | CCCNc1ccc2ncc(-c3ccc4[nH]ccc4c3)n2n1 [Compound 140, 3-(1H-indol-5-yl)-N-propylimidazo[1,2-b]pyridazin-6-amine] | 
0.1 to 0.5 | > 10 | > 10 | > 10 | 19.4 | > 10 | 1280 | COc1ccc(Nc2ccc3ncc(-c4cc5ccccc5s4)n3n2)cc1OC [Compound 12, 3-(benzo[b]thiophen-2-yl)-N-(3,4-dimethoxyphenyl)imidazo[1,2-b]pyridazin-6-amine] | 
